Each compound was assayed on Bmi-1 protein (assay: Sandwich ELISA Assay (Bmi-1 protein level in HT-1080 cells after compound treatment)). Details: Table 1, Bmi-1 sandwich ELISA, read-out: ELISA EC50 value for Bmi-1 protein.
Assay type: cell-based
Summary of the method: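 Sandwich ELISA quantified Bmi-1 protein against recombinant standard (125–8000 pg/mL), with lysates captured overnight at 4 °C and signal by HRP/TMB at 450 nm (570 nm reference). Lysates came from HT-1080 cells incubated 40–48 h with test compounds in 0.5% DMSO.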

SMILES	EC50 [nM]
COc1ccc(Nc2cc(-n3c(C)ccc3C)cc(-n3c(C)nc4ccccc43)n2)cc1 [compound 577, 4-(2,5-dimethyl-1H-pyrrol-1-yl)-N-(4-methoxyphenyl)-6-(2-methyl-1H-benzimidazol-1-yl)pyridin-2-amine]	100 to 3000
COc1cccc(Nc2cncc(-n3c(C)nc4cc(F)c(F)cc43)n2)c1 [compound 578, 6-(5,6-difluoro-2-methyl-1H-benzimidazol-1-yl)-N-(3-methoxyphenyl)pyrazin-2-amine]	100 to 3000
Cc1nc2cc(F)c(F)cc2n1-c1cncc(Nc2ccc3c(c2)OC(F)(F)O3)n1 [compound 579, N-(2,2-difluoro-1,3-benzodioxol-5-yl)-6-(5,6-difluoro-2-methyl-1H-benzimidazol-1-yl)pyrazin-2-amine]	100 to 3000
COc1ccc(Nc2cc(N)cc(-n3c(C)nc4ccccc43)n2)cc1 [compound 580, N^2-(4-methoxyphenyl)-6-(2-methyl-1H-benzimidazol-1-yl)pyridine-2,4-diamine]	10 to 100
Cc1ccc(Nc2cncc(-n3c(C)nc4ccccc43)n2)c(O)c1 [compound 582, 5-methyl-2-{[6-(2-methyl-1H-benzimidazol-1-yl)pyrazin-2-yl]amino}phenol]	1 to 10
COc1ccc(Nc2cc(C#N)cc(-n3c(C)nc4cc(F)c(F)cc43)n2)cc1 [compound 583, 2-(5,6-difluoro-2-methyl-1H-benzimidazol-1-yl)-6-[(4-methoxyphenyl)amino]pyridine-4-carbonitrile]	1 to 10
Cc1nc2ccc(F)cc2n1-c1cc(C#N)cc(Nc2ccc(OC(F)(F)F)cc2)n1 [compound 588, 2-(6-fluoro-2-methyl-1H-benzimidazol-1-yl)-6-{[4-(trifluoromethoxy)phenyl]amino}pyridine-4-carbonitrile]	10 to 100
COc1ccc(Nc2cc(C#N)cc(-n3c(C)nc4ccc(F)cc43)n2)cc1 [compound 589, 2-(6-fluoro-2-methyl-1H-benzimidazol-1-yl)-6-[(4-methoxyphenyl)amino]pyridine-4-carbonitrile]	10 to 100
COc1ccc(Nc2cncc(-c3c(C)nc4ccc(F)cn34)n2)cc1 [compound 592, 6-(6-fluoro-2-methylimidazo[1,2-a]pyridin-3-yl)-N-(4-methoxyphenyl)pyrazin-2-amine]	< 1
Cc1ccc(Nc2cc(C#N)cc(-n3c(C)nc4cc(F)c(F)cc43)n2)cc1 [compound 599, 2-(5,6-difluoro-2-methyl-1H-benzimidazol-1-yl)-6-[(4-methylphenyl)amino]pyridine-4-carbonitrile]	10 to 100
Cc1nc2cc(F)c(F)cc2n1-c1cc(C#N)cc(Nc2ccc(Cl)cc2)n1 [compound 600, 2-[(4-chlorophenyl)amino]-6-(5,6-difluoro-2-methyl-1H-benzimidazol-1-yl)pyridine-4-carbonitrile]	10 to 100
Cc1nc2cc(F)c(F)cc2n1-c1cccc(Nc2ccc(C(F)(F)F)cc2)n1 [compound 601, 6-(5,6-difluoro-2-methyl-1H-benzimidazol-1-yl)-N-[4-(trifluoromethyl)phenyl]pyridin-2-amine]	10 to 100
Cc1nc2cc(F)c(F)cc2n1-c1cccc(Nc2ccc(OC(F)F)cc2)n1 [compound 602, N-[4-(difluoromethoxy)phenyl]-6-(5,6-difluoro-2-methyl-1H-benzimidazol-1-yl)pyridin-2-amine]	10 to 100
Cc1nc2cc(F)c(F)cc2n1-c1cccc(Nc2ccc(OC(F)(F)F)cc2)n1 [compound 603, 6-(5,6-difluoro-2-methyl-1H-benzimidazol-1-yl)-N-[4-(trifluoromethoxy)phenyl]pyridin-2-amine]	100 to 3000
Cc1nc2ccccc2n1-c1cc(N)cc(Nc2ccc(OC(F)(F)F)cc2)n1 [compound 604]	100 to 3000
Cc1nc2ccccc2n1-c1cc(N)cc(Nc2ccc(F)cc2)n1 [compound 605, N^2-(4-fluorophenyl)-6-(2-methyl-1H-benzimidazol-1-yl)pyridine-2,4-diamine]	100 to 3000
Cc1ccc(Nc2cc(C#N)cc(-n3c(C)nc4ccc(F)cc43)n2)cc1 [compound 611, 2-(6-fluoro-2-methyl-1H-benzimidazol-1-yl)-6-[(4-methylphenyl)amino]pyridine-4-carbonitrile]	1 to 10
Cc1nc2ccc(F)cc2n1-c1cc(C#N)cc(Nc2ccc(Cl)cc2)n1 [compound 612, 2-[(4-chlorophenyl)amino]-6-(6-fluoro-2-methyl-1H-benzimidazol-1-yl)pyridine-4-carbonitrile]	10 to 100
COc1ccc(Nc2cccc(-n3c(C)nc4cc(F)c(F)cc43)n2)cc1 [compound 613, 6-(5,6-difluoro-2-methyl-1H-benzimidazol-1-yl)-N-(4-methoxyphenyl)pyridin-2-amine]	10 to 100
Cc1ccc(Nc2cccc(-n3c(C)nc4cc(F)c(F)cc43)n2)cc1 [compound 614, 6-(5,6-difluoro-2-methyl-1H-benzimidazol-1-yl)-N-(4-methylphenyl)pyridin-2-amine]	10 to 100
Cc1nc2cc(F)c(F)cc2n1-c1cccc(Nc2ccc(Cl)cc2)n1 [compound 615, N-(4-chlorophenyl)-6-(5,6-difluoro-2-methyl-1H-benzimidazol-1-yl)pyridin-2-amine]	100 to 3000

SMILES	EC50 [nM]
Cc1nc2ccccc2n1-c1cncc(Nc2ccc(Br)cc2)n1 [compound 616, N-(4-bromophenyl)-6-(2-methyl-1H-benzimidazol-1-yl)pyrazin-2-amine]	1 to 10
Cc1ccc(Nc2cc(-n3c(C)ccc3C)cc(-n3c(C)nc4ccccc43)n2)cc1 [compound 617, 4-(2,5-dimethyl-1H-pyrrol-1-yl)-6-(2-methyl-1H-benzimidazol-1-yl)-N-(4-methylphenyl)pyridin-2-amine]	10 to 100
Cc1ccc(C)n1-c1cc(Nc2ccc(Cl)cc2)nc(-n2c(C)nc3ccccc32)c1 [compound 618, N-(4-chlorophenyl)-4-(2,5-dimethyl-1H-pyrrol-1-yl)-6-(2-methyl-1H-benzimidazol-1-yl)pyridin-2-amine]	100 to 3000
Cc1nc2ccccc2n1-c1cncc(Nc2ccc(I)cc2)n1 [compound 619, N-(4-iodophenyl)-6-(2-methyl-1H-benzimidazol-1-yl)pyrazin-2-amine]	1 to 10
CCc1nc2ccc(F)cc2n1-c1cncc(Nc2ccccc2)n1 [compound 620, 6-(2-ethyl-6-fluoro-1H-benzimidazol-1-yl)-N-phenylpyrazin-2-amine]	100 to 3000
CCc1nn2ccccc2c1-c1cncc(Nc2ccc(OC)cc2)n1 [compound 627, 6-(2-ethylpyrazolo[1,5-a]pyridin-3-yl)-N-(4-methoxyphenyl)pyrazin-2-amine]	< 1
CCc1nn2ccccc2c1-c1cncc(Nc2ccc(C)cc2)n1 [compound 628, 6-(2-ethylpyrazolo[1,5-a]pyridin-3-yl)-N-(4-methylphenyl)pyrazin-2-amine]	< 1
CCc1nn2ccccc2c1-c1cncc(Nc2ccc(Cl)cc2)n1 [compound 629, N-(4-chlorophenyl)-6-(2-ethylpyrazolo[1,5-a]pyridin-3-yl)pyrazin-2-amine]	1 to 10
CCc1nn2ccccc2c1-c1cncc(Nc2ccc(F)cc2)n1 [compound 630, 6-(2-ethylpyrazolo[1,5-a]pyridin-3-yl)-N-(4-fluorophenyl)pyrazin-2-amine]	100 to 3000
CCc1nn2ccccc2c1-c1cncc(Nc2ccccc2)n1 [compound 631, 6-(2-ethylpyrazolo[1,5-a]pyridin-3-yl)-N-phenylpyrazin-2-amine]	100 to 3000
Cc1ccc(Nc2cc(N)cc(-n3c(C)nc4ccccc43)n2)cc1 [compound 632, 6-(2-methyl-1H-benzimidazol-1-yl)-N^2-(4-methylphenyl)pyridine-2,4-diamine]	1 to 10
Cc1nc2ccccc2n1-c1cc(N)cc(Nc2ccc(Cl)cc2)n1 [compound 633, N^2-(4-chlorophenyl)-6-(2-methyl-1H-benzimidazol-1-yl)pyridine-2,4-diamine]	10 to 100
CCc1nn2ccccc2c1-c1cncc(Nc2cccc(OC)c2)n1 [compound 640, 6-(2-ethylpyrazolo[1,5-a]pyridin-3-yl)-N-(3-methoxyphenyl)pyrazin-2-amine]	10 to 100
CCc1nn2ccccc2c1-c1cncc(Nc2ccc(C#N)cc2)n1 [compound 641, 4-{[6-(2-ethylpyrazolo[1,5-a]pyridin-3-yl)pyrazin-2-yl]amino}benzonitrile]	10 to 100
CCc1nn2ccccc2c1-c1cncc(Nc2ccc(C(=O)OC)cc2)n1 [compound 642, methyl 4-{[6-(2-ethylpyrazolo[1,5-a]pyridin-3-yl)pyrazin-2-yl]amino}benzoate]	10 to 100
CCc1nn2ccccc2c1-c1cncc(Nc2cccc(Cl)c2)n1 [compound 643, N-(3-chlorophenyl)-6-(2-ethylpyrazolo[1,5-a]pyridin-3-yl)pyrazin-2-amine]	100 to 3000
Cc1nc2ccccc2n1-c1cncc(Nc2ccc(C(F)(F)F)cc2F)n1 [compound 644, N-[2-fluoro-4-(trifluoromethyl)phenyl]-6-(2-methyl-1H-benzimidazol-1-yl)pyrazin-2-amine]	10 to 100
Cc1nc2ccccc2n1-c1cncc(Nc2cc(F)c(C(F)(F)F)c(F)c2)n1 [compound 645, N-[3,5-difluoro-4-(trifluoromethyl)phenyl]-6-(2-methyl-1H-benzimidazol-1-yl)pyrazin-2-amine]	10 to 100
Cc1nc2ccc(F)cn2c1-c1cc(C#N)cc(Nc2cccc(F)c2)n1 [compound 651, 2-(6-fluoro-2-methylimidazo[1,2-a]pyridin-3-yl)-6-[(3-fluorophenyl)amino}pyridine-4-carbonitrile]	100 to 3000
Cc1nc2cc(F)c(F)cc2n1-c1cc(N)cc(Nc2ccc(OC(F)(F)F)cc2)n1 [compound 652, 6-(5,6-difluoro-2-methyl-1H-benzimidazol-1-yl)-N^2-[4-(trifluoromethoxy)phenyl]pyridine-2,4-diamine]	10 to 100

Source: US10584115B2, “Substituted pyridine and pyrazine BMI-1 inhibitors” (PTC Therapeutics, Inc., priority 2013, dated 2020)
